Data set [1] is described as follows: DPPH free-radical scavenging (antioxidant) assay. The conditions noted are these: 40–200 µM in methanol, versus ascorbic acid. Here is the method:
The potential of several compounds to scavenge DPPH free radicals was quantified employing a colorimetric approach. Various doses of all tested compounds (3a–3k) were prepared in methanol (40–200 µM), and standard solutions of ascorbic acid (40–200 µM) were made by dissolving the compound in methanol. After determining the optimal concentration of each compound and ascorbic acid, the solutions were supplemented with DPPH. The radical scavenging capacity (RSC) was calculated by measuring the absorbance at 517 nm and using the Formula (1):% DPPH RSC = (Abs. of control − Abs. of sample or standard)/Abs. of control × 100(1)
(In general: Loss of DPPH colour is used to gauge radical scavenging.)

For data set [2], the system named is Caco-2 cells. In words: LDH release ELISA in treated Caco-2 cells. It is filed as cell-based, human. The conditions noted are these: compound-treated Caco-2 cells, p < 0.001. The protocol:
The amount of lactate dehydrogenase enzyme (LDH) secreted by compound 3e-treated Caco-2 cells was measured using the double-antibody-sandwich ELISA method (Sun-Red, Cat. N. 201-28-0094) to confirm the cytotoxic impact of the tested chemical on Caco-2 cells. Specifically, 40 µL of the supernatant obtained from centrifuging the Caco-2 cells that had been treated with the 3e compound was added to the test wells. Next, LDH-antibody (10 µL) and Streptavidin-HRP (50 µL) were transferred to every well. After 60 min of incubation at 37 °C, the 96-well plate was shaken gently. […] The 96-well plate was then gently shaken and left to incubate for 60 min at 37 °C. The plates were then washed, and each test well received 50 µL of chromogen solution A and 50 µL of chromogen solution B. The plates were then incubated at 37 °C, and darkened for 10 min. Stop solution (50 µL) was then applied to each well. Once testing was complete, 450 nm was used to determine the plate’s optical density (OD). The amount of released LDH was calculated using the standard curve that had been previously established.
(In general: LDH in the medium is a marker of cell lysis.)

Data set [3] concerns Caco-2 cells. In words: Comet assay (DNA fragmentation). The class given is cell-based, human. From the text: The production of genotoxicity in Caco-2 cells treated with compound 3e was investigated using a comet test. Caco-2 cells were pretreated with a caspase-3 inhibitor (Z-DEVD-FMK) to ascertain whether or not caspase-3 activity contributed to the DNA damage induced by compound 3e. Using the comet test, in order to assess the influence of compound 3e upon DNA damage, Caco-2 cells were subjected to either compound 3e separately (IC50 concentration) or compound 3e (IC50 concentration) following prior treatment with Z-DEVD-FMK ([…]) for 1 h. Broken strands of broken DNA will detach from intact strands of cellular DNA during fragmentation, producing a structure similar to a comet tail visible under a fluorescence microscope (Carl Zeiss, Axiostar Plus 1169–149, Jena, Germany). For each slide, 100 photos of comets of varying shapes were captured using a computerized image analysis system. Afterwards, the photos were analyzed using the TriTek Comet ScoreTM program (TriTek Corp., Sumerduck, VA, USA) to gather information about the comet’s properties. The tail DNA and tail moment, two often-utilized markers, were built to be used in discovering the data. The Olive tail moment (OTM), which is also called a tail moment parameter, is generally accepted as the gold standard for evaluating DNA damage. Its value, which was calculated using Equation (3), is proportional to the tail’s DNA mobility and DNA abundance. OTM = quantity of tail moment × quantity of tail DNA divided by 100(3)

For a further data set, the system named is Caspase-3. Nature of the data set: qRT-PCR of Caspase-3 mRNA in Caco-2 cells. It is filed as cell-based, human. The conditions noted are these: Caco-2, IC50 concentration. From the text: (§1) The relative amounts of messenger RNA (mRNA) for apoptosis-related genes (BCL-2, Caspase-3, and BAX) have been monitored in order to look into potential processes relating to the effect of the tested 3e compound on apoptosis inside the treated Caco-2 cancer cells. In a nutshell, Thermo Fisher Scientific’s RNA purification kit (Waltham, MA, USA) (catalog #K0731) was used to isolate total RNA from both control- and Caco-2-treated cells, as per the manufacturer’s instructions. The ratio of A260/A280 was then quantified using a spectrophotometer to figure out the amounts of extracted RNA in each sample. Then, following the manufacturer’s instructions, first-strand cDNA was produced from the collected RNA samples using a kit made by Thermo Fisher Scientific called RevertAid (catalog #K1621). Real-time PCR amplification was performed on an Applied Biosystems StepOnePlusTM instrument using the Thermo Fisher Scientific Maxima SYBR Green qPCR kit (catalog #K0221) and gene-specific primers (Invitrogen, Waltham, MA, USA), as detailed in Table 3. Then, the relative quantification (RQ) of the utilized genes was calculated using a comparative threshold cycle approach, compared against their varied expression in the untreated samples, and normalized to B-actin as a housekeeping gene. […]
(In general: Real-time PCR tracks product formation cycle by cycle.)

The test system of the next data set is BCL-2. Nature of the data set: qRT-PCR of BCL-2 mRNA in Caco-2 cells. The class given is cell-based, human. The conditions noted are these: Caco-2, IC50 concentration.
Excerpt: as §1

A further data set has as its system BAX. In words: ELISA of BAX protein in Caco-2 cells. It is filed as cell-based, human. The conditions noted are these: Caco-2, IC50 dose. The protocol: (§2) Protein expression levels of the under investigation genes were evaluated in Caco-2 cells treated with compound 3e using an ELISA assay. Three different ELISA kits were used: one for BAX (ab199080), one for cleaved Caspase-3 (ab220655), and one for BCL-2 (ab272102), which were supplied via Abcam (Cambridge, UK). All of these kits are based on a single, highly sensitive sandwich enzyme assay that lasts 90 min and uses a precoated ELISA plate and an anti-tag antibody to capture antibodies that have been labeled with an affinity tag. The tested compound 3e-treated cultured Caco-2 cells were centrifuged, the resulting pellets were discarded, and the residual supernatant was mixed with an antibody cocktail solution in a 96-well ELISA plate. The plate was then incubated for 1 h at room temperature. After thoroughly rinsing the plate in wash buffer (1×), in each well, a ten min incubation period of tetramethylbenzidine substrate solution was conducted. Following that, the plate was stored in a dim area. The intensity at 450 nm was then measured with a microplate reader immediately after a stop solution was added.

Another data set deals with cleaved Caspase-3. Nature of the data set: ELISA of cleaved Caspase-3 protein in Caco-2 cells. Conditions: Caco-2, IC50 dose. The class given is cell-based, human. Here is the method:
as §2

[4] abbreviates: Caco-2, IC50 concentration after pretreatment with Caspase-3 inhibitor Z-DEVD-FMK for 1 h.
The mark [5] stands for this setting: Caco-2, compound alone at IC50 concentration, without Caspase-3 inhibitor.

Structures are written as SMILES.

For `O=C(/C=C/C=C/c1ccccc1)c1ccc[nH]1` [3e, (2E,4E)-5-phenyl-1-(1H-pyrrol-2-yl)penta-2,4-dien-1-one], the “antioxidant activity (DPPH scavenging, IC50) compared with the other compounds” value in data set [1] is “highest effective antioxidant activity”. In addition, the “LDH levels versus untreated Caco-2 cells” value with Caco-2 cells [2] is listed as “considerably increased”. Moreover, in the data set with Caco-2 cells [3] (setting [4]), the “% DNA in Tail” value stood at 4.55± 1.73, the “Olive Tail Moment (OTM)” value is listed as 0.69± 0.16 and the “Tail Moment” value was found to be 0.44± 0.08. For the same molecule, in the data set on Caco-2 cells [3] (setting [5]), the “% DNA in Tail” value was determined as 8.18 ± 0.56, the “Olive Tail Moment (OTM)” value came out at 1.92 ± 0.04 and the “Tail Moment” value worked out at 1.19 ± 0.03. In addition, in the data set on Caspase-3, the “Caspase-3 mRNA expression level versus untreated cells” value is reported as “increased considerably”. Further, in the data set with BCL-2, the “BCL-2 mRNA expression level versus untreated cells” value is “substantial reduction”. Moreover, in the data set with BAX, the “BAX protein level versus untreated cells” value is “increased levels”. Also, the “cleaved Caspase-3 protein level versus untreated cells” value in the data set with cleaved Caspase-3 is “increased levels”.

For the origin of these results see article PMC10886690, “Synthesis, Characterization, Antioxidant, and Anticancer Activity against Colon Cancer Cells of Some Cinnamaldehyde-Based Chalcone Derivatives” (Biomolecules, 2024).
